{"source": "patent US7439251B2", "about": "“Methods and compositions for treatment of central and peripheral nervous system disorders and novel compounds useful therefor” (Israel Institute for Biological Research, priority 2002, dated 2008)", "key": {"[1]": {"test_system": "ApoE", "assay": "ApoE synthesis and secretion in rat primary type 1 astrocytes", "assay_type": "cell-based", "details": "96 hrs; 0.1 nM", "experimental": "Primary cultures of type 1 astrocytes were derived from the cortex of Sprague Dawley rats. The compounds tested were dissolved in the culture media and added to cells for 24, 48, 72 and 96 hrs. Media was then removed and kept frozen until ApoE protein levels were evaluated by immunoblot analysis as described in Poirier et al Neuroscience 55: 81-90 (1993)."}, "[2]": {"assay": "Morris water maze in C57BL/10SnJ (small hippocampus) vs C57BL6J mice", "assay_type": "in vivo", "details": "for reversal test, swimming speed: normal hippocampi mice, AF150(S) 0.5 mg/kg, AF267B 1 mg/kg", "description": "C57BL/10SnJ (B10) mice were selected due to their small hippocampi and decreased number of hippocampal pyramidal neurons; the cell loss seemed to be associated with poor spatial learning.\nEach group of mice was randomly divided into 7 treatment groups (n=12-14/group). […] All tested compounds and saline were administered once a day for 4 days before starting the behavioral testing, and then for the duration of the 5-day experiment, 30 minutes before testing.\nTraining: Each mouse was trained for four consecutive days, four trials (one block) per day, in which the platform position remained constant and was located in the center of the southeast quadrant of the pool. Within each block of four trials, each mouse started at each of the starting locations, but the sequence of locations was randomly selected. A trial consisted of placing a mouse by hand into the water facing the wall of the pool at one of four starting locations, north, south, east or west, around the pool's perimeter. Escape latency (the time to find the platform), path length (the distance traveled by the mouse) and speed (the swimming rate of the mouse) were recorded on each trial by the monitoring system.\nFor each mouse, the path length, escape latency, and swimming speed of the four trials on each of the 4 training days were grouped into blocks (one block for each day). […] Specific comparisons were performed, using the simple main effects contrasts analysis, which is specifically suited for testing significant interactions.\nTransfer test. During trial No. 17, on the fourth day, the platform was entirely removed from the pool (a probe trial). In this trial, the mouse was placed into the water for a limited period (30 s), and its spatial bias was measured by recording the relative distribution of escape latency and path length over the four quadrants of the pool.\nReversal test. During trials 18-21, on the fifth day, the platform position was changed to the northwest quadrant, opposite to the training quadrant Thus, during reversal learning, the platform location was moved relative to the configuration of objects within the room, but the pool occupied the same place within the room throughout the entire experiment. Testing of the […] and measures taken were the same as in training.\nFor each mouse, the escape latency, path length and swimming speed of the reversal test (trials No. 18-21) were grouped into one block."}, "[3]": {"test_system": "rat pheochromocytoma cells transfected with the M1 mAChR"}, "[4]": {"test_system": "tau", "assay": "Tau phosphorylation, AT8 immunoblot", "assay_type": "cell-based", "details": "100 μM; to the control level", "from_the_text": "Following the experimental design of Sadot et al., J.Neurochem. […] By linking an M1 agonist to an antioxidant moiety tau phophorylation may be decreased, providing a new therapeutic strategy in a variety of CNS disease states due to combined damage due to oxidative stress and tau hyperphosphorylation."}, "[5]": {"details": "small hippocampus mice, AF compounds 0.5 and 1 mg/kg i.p., rivastigmine, nicotine 1 mg/kg i.p."}}}
{"compound": "CC1OC2(CS1)CN1CCC2CC1", "note": "(stereo not shown) [AF102B, reference compound]", "values": [{"measurement": "inhibition of ApoE production", "setting": "[1]", "result": "inactive"}]}
{"compound": "CN1CCCC1c1cccnc1", "note": "(stereo not shown) [nicotine, reference compound]", "values": [{"measurement": "reversal test, swimming speed", "setting": "[2]", "result": "significantly decreased"}, {"measurement": "training, escape latency", "setting": "[2]; normal hippocampus mice", "result": "degraded the performance"}, {"measurement": "training, swimming speed", "setting": "[2]; normal hippocampus mice", "result": "significantly decreased the swimming speed"}, {"measurement": "reversal test, escape latency", "setting": "[2]; normal hippocampus mice, AF150(S) at 0.5 mg/kg", "result": "no significant effect"}, {"measurement": "training, swimming speed", "setting": "[2]; small hippocampus mice", "result": "Neither rivastigmine nor nicotine had any significant effect"}, {"measurement": "transfer test, spatial bias", "setting": "[2]; small hippocampus mice", "result": "only a partial spatial bias"}, {"measurement": "training, escape latency", "setting": "[2]; [5]", "result": "no improving effect"}]}
{"compound": "CCN(C)C(=O)Oc1cccc([C@H](C)N(C)C)c1", "note": "[rivastigmine, reference compound]", "values": [{"measurement": "reversal test, swimming speed", "setting": "[2]", "result": "significantly decreased"}, {"measurement": "training, swimming speed", "setting": "[2]; normal hippocampus mice", "result": "significantly decreased the swimming speed"}, {"measurement": "training, swimming speed", "setting": "[2]; small hippocampus mice", "result": "Neither rivastigmine nor nicotine had any significant effect"}, {"measurement": "transfer test, spatial bias", "setting": "[2]; small hippocampus mice", "result": "complete spatial bias"}, {"measurement": "training, path length", "setting": "[2]; small hippocampus mice, AF150(S) both doses, AF267B the higher dose", "result": "positively affected the performance"}, {"measurement": "training, escape latency", "setting": "[2]; [5]", "result": "positively affected the training performance"}]}
{"compound": "CCC1SC2(CCN(C)CC2)N(CCc2c[nH]c3ccccc23)C1=O", "note": "(stereo not shown) [AF703, 2-Ethyl-4-[2-(1H-indol-3-yl)ethyl]-8-methyl-1-thia-4,8-diaza-spiro[4.5]decan-3-one]", "values": [{"measurement": "β-A25-35-induced cytotoxicity", "setting": "[3]", "result": "more effective than carbachol and AF267B"}]}
{"compound": "CCC1SC2(CCN(C)CC2)N(C(=O)CCc2c[nH]c3ccccc23)C1=O", "note": "(racemic) [AF704, 2-Ethyl-4(3-1H-indol-3-yl-propionyl)-8-methyl-1-thia-4,8-diaza-spiro[4.5]decan-3-one]", "values": [{"measurement": "phosphorylated tau (AT8)", "setting": "[4]", "result": "induce dephosphorylation of tau proteins"}, {"measurement": "β-A25-35-induced cytotoxicity", "setting": "[3]", "result": "more effective than carbachol and AF267B"}]}
{"compound": "CC[C@@H]1SC2(CCN(C)CC2)N(S(=O)(=O)c2ccc(F)cc2)C1=O", "note": "[AF700, (S)-2-Ethyl-4-(4-fluoro-benzenesulfonyl)-8-methyl-1-thia-4,8diaza-spiro[4.5]decan-3-one]", "values": [{"measurement": "β-A25-35-induced cytotoxicity", "setting": "[3]", "result": "more effective than carbachol and AF267B"}]}
{"compound": "(S)-Ethyl-4-(3-1H-indol-3-yl-propionyl)-8-methyl-1-thia-4,8-diaza-spiro[4.5]decan-3-one [AF704B]", "values": [{"measurement": "phosphorylated tau (AT8)", "setting": "[4]", "result": "induce dephosphorylation of tau proteins"}]}
